Values joined by “and” are separate entries in the source; they are usually repeats but may differ in a detail not shown here. Equal entries are not always repeated. Inconclusive results and toxic doses are left out. Rule for the calls: active = survival T/C of 150% or more; inactive = T/C below 125% in these data.
System: BDF1 mice, P388 leukemia ip, median survival T/C
Test: NCI In Vivo Anticancer Drug Screen. Data for tumor model P388 Leukemia (intraperitoneal) in B6D2F1 (BDF1) mice
Settings: endpoint: median survival time, higher = longer survival
Method in brief: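 Reported as T/C, where T is the survival measurement in dosed animals and C the same measurement in vehicle controls.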

[1] = dose: 100.0 mg/kg/injection, schedule: Q04DX003 (ip), vehicle: saline
[2] = dose: 200.0 mg/kg/injection, schedule: Q04DX003 (ip), vehicle: saline
[3] = dose: 400.0 mg/kg/injection, schedule: Q04DX003 (ip), vehicle: saline
[4] = dose: 50.0 mg/kg/injection, schedule: Q01DX009 (ip), vehicle: saline with Tween-80
[5] = dose: 200.0 mg/kg/injection, schedule: Q01DX009 (ip), vehicle: saline with Tween-80
[6] = dose: 100.0 mg/kg/injection, schedule: Q01DX009 (ip), vehicle: Klucel (hydroxypropylcellulose) (HPC)
[7] = dose: 400.0 mg/kg/injection, schedule: Q04DX003 (ip), vehicle: saline with Tween-80
[8] = dose: 100.0 mg/kg/injection, schedule: Q01DX009 (ip), vehicle: saline with Tween-80
[9] = dose: 25.0 mg/kg/injection, schedule: Q04DX003 (ip), vehicle: saline
[10] = dose: 50.0 mg/kg/injection, schedule: Q04DX003 (ip), vehicle: saline

Measured: T/C

CC(C)(CO)Nc1ccccc1
inactive: [1] 110 % of control | [2] 100 % of control | [3] 100 % of control

C=C(C)C(=O)O[C@H]1CC2=CC(CC(C)=C[C@H]3OC(=O)C(=C)C13)OC2=O (stereo partly drawn)
inactive: dose: 12.5 mg/kg/injection, schedule: Q01DX001 (ip), vehicle: saline with Tween-80 109 % of control | dose: 25.0 mg/kg/injection, schedule: Q01DX001 (ip), vehicle: saline with Tween-80 120 % of control | dose: 50.0 mg/kg/injection, schedule: Q01DX001 (ip), vehicle: saline with Tween-80 107 % of control and 111 % of control

C=CCCc1cc(OC)ccc1C(=O)C(C)C
inactive: [4] 112 % of control | [5] 119 % of control

CCn1c2ccc([N+](=O)[O-])cc2c2c([N+](=O)[O-])cccc21
inactive: dose: 100.0 mg/kg/injection, schedule: Q01DX001 (ip), vehicle: saline with Tween-80 110 % of control | dose: 200.0 mg/kg/injection, schedule: Q01DX001 (ip), vehicle: saline with Tween-80 100 % of control | dose: 400.0 mg/kg/injection, schedule: Q01DX001 (ip), vehicle: saline with Tween-80 94 % of control

CCCCCCCCCCCCCCCCCCOC(=O)Cc1ccc(N(CCCl)CCCl)cc1
inactive: dose: 50.0 mg/kg/injection, schedule: Q04DX002 (ip), vehicle: Klucel (hydroxypropylcellulose) (HPC) 123 % of control | dose: 100.0 mg/kg/injection, schedule: Q04DX002 (ip), vehicle: Klucel (hydroxypropylcellulose) (HPC) 104 % of control | dose: 100.0 mg/kg/injection, schedule: Q04DX003 (ip), vehicle: Klucel (hydroxypropylcellulose) (HPC) 113 % of control | dose: 180.0 mg/kg/injection, schedule: Q04DX003 (ip), vehicle: saline with Tween-80 100 % of control | dose: 200.0 mg/kg/injection, schedule: Q04DX003 (ip), vehicle: Klucel (hydroxypropylcellulose) (HPC) 118 % of control | dose: 400.0 mg/kg/injection, schedule: Q01DX009 (ip), vehicle: Klucel (hydroxypropylcellulose) (HPC) 123 % of control
active: dose: 66.0 mg/kg/injection, schedule: Q01DX007 (ip), vehicle: Klucel (hydroxypropylcellulose) (HPC) 153 % of control | dose: 100.0 mg/kg/injection, schedule: Q01DX007 (ip), vehicle: Klucel (hydroxypropylcellulose) (HPC) 165 % of control | [6] 150 % of control | dose: 150.0 mg/kg/injection, schedule: Q01DX007 (ip), vehicle: Klucel (hydroxypropylcellulose) (HPC) 173 % of control | dose: 400.0 mg/kg/injection, schedule: Q04DX002 (ip), vehicle: Klucel (hydroxypropylcellulose) (HPC) 180 % of control | dose: 400.0 mg/kg/injection, schedule: Q04DX003 (ip), vehicle: Klucel (hydroxypropylcellulose) (HPC) 250 % of control and 159 % of control | [7] 166 % of control | dose: 600.0 mg/kg/injection, schedule: Q04DX003 (ip), vehicle: Klucel (hydroxypropylcellulose) (HPC) 208 % of control | dose: 600.0 mg/kg/injection, schedule: Q04DX003 (ip), vehicle: saline with Tween-80 150 % of control

O=C(O)CNC1CSSC1
inactive: dose: 1.56 mg/kg/injection, schedule: Q04DX003 (ip), vehicle: water 97 % of control | dose: 3.12 mg/kg/injection, schedule: Q01DX009 (ip), vehicle: water 111 % of control | dose: 3.12 mg/kg/injection, schedule: Q04DX003 (ip), vehicle: water 88 % of control | dose: 6.25 mg/kg/injection, schedule: Q01DX009 (ip), vehicle: water 101 % of control | dose: 6.25 mg/kg/injection, schedule: Q04DX003 (ip), vehicle: water 93 % of control | dose: 12.5 mg/kg/injection, schedule: Q04DX003 (ip), vehicle: water 88 % of control | dose: 25.0 mg/kg/injection, schedule: Q01DX009 (ip), vehicle: water 109 % of control | dose: 25.0 mg/kg/injection, schedule: Q04DX003 (ip), vehicle: water 94 % of control | dose: 50.0 mg/kg/injection, schedule: Q01DX009 (ip), vehicle: water 108 % of control | dose: 50.0 mg/kg/injection, schedule: Q04DX003 (ip), vehicle: water 86 % of control | dose: 100.0 mg/kg/injection, schedule: Q01DX009 (ip), vehicle: water 91 % of control

C[C@]12CC[C@H]3[C@@H](CC[C@]4(O)C[C@@H](O)CC[C@]34/C=N/O)[C@@]1(O)CC[C@@H]2C1=COC(=O)C1
inactive: dose: 1.87 mg/kg/injection, schedule: Q01DX010 (ip), vehicle: carboxymethylcellulose (CMC) 94 % of control | dose: 3.75 mg/kg/injection, schedule: Q01DX010 (ip), vehicle: carboxymethylcellulose (CMC) 100 % of control | dose: 7.5 mg/kg/injection, schedule: Q01DX010 (ip), vehicle: carboxymethylcellulose (CMC) 111 % of control | dose: 15.0 mg/kg/injection, schedule: Q01DX010 (ip), vehicle: carboxymethylcellulose (CMC) 116 % of control | dose: 30.0 mg/kg/injection, schedule: Q01DX010 (ip), vehicle: carboxymethylcellulose (CMC) 111 % of control | dose: 60.0 mg/kg/injection, schedule: Q01DX010 (ip), vehicle: carboxymethylcellulose (CMC) 122 % of control

CC[C@H]1CN2CCc3cc(OC)c(OC)cc3[C@@H]2C[C@@H]1C[C@H]1NCCc2c1[nH]c1ccc(OC)cc21
active: dose: 16.0 mg/kg/injection, schedule: Q04DX003 (ip), vehicle: saline 183 % of control | dose: 18.0 mg/kg/injection, schedule: Q04DX003 (ip), vehicle: acid diluted with saline 166 % of control | dose: 30.0 mg/kg/injection, schedule: Q04DX003 (ip), vehicle: acid diluted with saline 150 % of control | dose: 32.0 mg/kg/injection, schedule: Q04DX003 (ip), vehicle: saline 186 % of control
inactive: dose: 64.0 mg/kg/injection, schedule: Q04DX003 (ip), vehicle: saline 102 % of control

Cn1c(=O)[nH]c(=O)c2nc(-c3cccnc3)c(-c3ccncc3)nc21
inactive: dose: 100.0 mg/kg/injection, schedule: Q04DX002 (ip), vehicle: saline with Tween-80 101 % of control | dose: 200.0 mg/kg/injection, schedule: Q04DX002 (ip), vehicle: saline with Tween-80 99 % of control | dose: 400.0 mg/kg/injection, schedule: Q04DX002 (ip), vehicle: saline with Tween-80 110 % of control

COC1CC(C)C(OC)C2=CC(=O)C=C(NC(=O)/C(C)=C/C=C\C(C)C(OC(N)=O)/C(C)=C\C(C)C1OC)C2=O (stereo not drawn)
active: dose: 5.0 mg/kg/injection, schedule: Q01DX009 (ip), vehicle: saline + alcohol 150 % of control | dose: 10.0 mg/kg/injection, schedule: Q01DX009 (ip), vehicle: saline + alcohol 171 % of control

O=S1(=O)CCN(Cc2ccccc2)CC1
inactive: dose: 50.0 mg/kg/injection, schedule: Q01DX009 (ip), vehicle: Klucel (hydroxypropylcellulose) (HPC) 96 % of control | [6] 96 % of control | dose: 200.0 mg/kg/injection, schedule: Q01DX009 (ip), vehicle: Klucel (hydroxypropylcellulose) (HPC) 91 % of control

CCCCNC(C)(C)C(SSSC(c1cccs1)C(C)(C)NCCCC)c1cccs1 (stereo not drawn)
inactive: dose: 44.0 mg/kg/injection, schedule: Q04DX003 (ip), vehicle: saline with Tween-80 113 % of control | [4] 118 % of control | dose: 66.0 mg/kg/injection, schedule: Q04DX003 (ip), vehicle: saline with Tween-80 100 % of control | [8] 122 % of control | dose: 100.0 mg/kg/injection, schedule: Q04DX003 (ip), vehicle: saline with Tween-80 118 % of control | dose: 150.0 mg/kg/injection, schedule: Q04DX003 (ip), vehicle: saline with Tween-80 109 % of control | [5] 118 % of control | dose: 200.0 mg/kg/injection, schedule: Q04DX003 (ip), vehicle: saline with Tween-80 118 % of control | [7] 122 % of control

Cc1ccc2c(c1)C(=O)CC=C(C(=O)O)N2
inactive: [1] 100 % of control | [5] 87 % of control | [2] 110 % of control | [3] 105 % of control

CN(C)c1ccc(/C=C/c2ccnc3ccc(Br)cc23)cc1
inactive: [4] 109 % of control | [8] 114 % of control | [5] 116 % of control

COc1ccc(/C=C/[N+](=O)[O-])cc1O
inactive: dose: 6.25 mg/kg/injection, schedule: Q01DX009 (ip), vehicle: saline 106 % of control | dose: 12.5 mg/kg/injection, schedule: Q01DX009 (ip), vehicle: saline 115 % of control and 121 % of control | dose: 12.5 mg/kg/injection, schedule: Q04DX003 (ip), vehicle: saline 113 % of control | dose: 25.0 mg/kg/injection, schedule: Q01DX009 (ip), vehicle: saline 111 % of control and 121 % of control | [9] 113 % of control | dose: 50.0 mg/kg/injection, schedule: Q01DX009 (ip), vehicle: saline 95 % of control and 123 % of control | [10] 114 % of control and 122 % of control | [1] 114 % of control and 122 % of control

OCCN1CCN(CCCN2c3ccccc3CCc3ccccc32)CC1
inactive: [9] 103 % of control and 117 % of control | [10] 100 % of control and 107 % of control | [1] 115 % of control and 116 % of control

Source: PubChem BioAssay AID328 (DTP/NCI, 2004)
